Results on four molecules are retold here after patent US5652124A (priority 1989, dated 1997).

Read-outs that look alike come from different tables or passages of the source.

The conditions of data set [1]: cited from earlier work.
Data set [2] in a line: Improvement of water-solubility: standing of saccharide-transfer reaction solution at 4° C. It counts as physicochemical. As to conditions: 4° C. for 2 days.
Data set [3] concerns α-glucosidase (EC 3.2.1.20) derived from pig liver. In words: Stability against hydrolysis by α-glucosidase. It counts as in vitro ADME. An excerpt: Acid hydrolysis of the α-glucosyl hesperidin led to the formation of 1 mole of rhamnose and 2 moles of D-glucose per 1 mole hesperidin, while an α-glucosidase, obtained by the extraction from pig liver and partial purification, hydrolyzed α-glucosyl hesperidin into hesperidin and D-glucose.

In a further data set the test system is dd mice. In words: Acute toxicity test. It counts as in vivo. As to conditions: oral, 7 week-old dd mice. An excerpt: As the result, no mouse died when administered with up to […] of the specimen, and higher dose was difficult.

On to `COc1ccc([C@@H]2CC(=O)c3c(O)cc(O[C@@H]4O[C@H](CO[C@@H]5O[C@@H](C)[C@H](O)[C@@H](O)[C@H]5O)[C@@H](O)[C@H](O)[C@H]4O)cc3O2)cc1O` [hesperidin], for which, in data set [1] (ambient temperature), the solubility in water entry was “about 0.002 w/v %” and the “solubility in water (weight per volume of water)” value was “about 1 g in 50 liters of water”. Besides, the “solubility in water (in words)” value in data set [1] is “hardly soluble”. Further, in data set [2], the “appearance of solution after standing” value is reported as “white turbidity”. For `COc1ccc(C2CC(=O)c3c(O)cc(O[C@@H]4O[C@H](CO[C@@H]5O[C@@H](C)[C@H](O)[C@@H](O)[C@H]5O)[C@@H](O[C@H]5O[C@H](CO)[C@@H](O)[C@H](O)[C@H]5O)[C@H](O)[C@H]4O)cc3O2)cc1O` (stereo partly drawn) [α-glucosyl hesperidin], the “hydrolysis by α-glucosidase into hesperidin and D-glucose” value in data set [3] (α-glucosidase from pig liver) is on record as “hydrolyzed”. Regarding `COc1ccc(C2CC(=O)c3c(O)cc(O[C@@H]4O[C@H](CO[C@@H]5O[C@@H](C)[C@H](O)[C@@H](O)[C@H]5O)[C@@H](O[C@H]5O[C@H](CO)[C@@H](O)[C@H](O)[C@H]5O)[C@H](O)[C@H]4O)cc3O2)cc1O` (stereo partly drawn) [α-glycosyl hesperidin specimen [II]], the “toxicity (conclusion in words)” value in the data set on dd mice is recorded as “extremely low”. α-glycosyl hesperidin: the “hydrolysis by α-glucosidase into hesperidin and D-glucose” value in data set [3] is on record as “hydrolyzable”.
